Data reported in paper PMC11605291 (Frontiers in Pharmacology, 2024).

Legend:
[1] = Metabolite profiling and identification in plasma, urine and feces (LC/RAM/MS); format: in vivo, human; settings: for Plasma %AUC (percentage of total plasma radioactivity): AUC-pooled 0–72 h plasma; for Plasma %AUC (percentage of total plasma radioactivity) / Urine %Dose / Feces %Dose: mean of 6 subjects; for Urine %Dose: pooled 0–72 h urine, total in urine 37.15%; for Feces %Dose: pooled 0–168 h feces, total in feces 62.08%
Protocol: The plasma samples from six subjects were pooled individually according to the AUC method to obtain 6 plasma samples of 0–72 h ([Hop et al., 1998]). A portion of the proportionally mixed plasma sample was taken and added to a certain volume of acetonitrile (3×, v/v) for extraction, vortexed for 1 min, shaken for 10 min and then stored in a refrigerator at 4°C for 30 min, the mixture was removed and vortexed for 2 min and then centrifuged for 10 min at 10,000×g and 4°C. The residue from the extraction was firstly ultrasonically suspended using 1 mL of ultrapure water and then extracted using methanol (2×, v/v) and repeated twice. The organic solvent extracts were combined, blown dry with nitrogen and reconstituted with acetonitrile: ultrapure water (1:1), the reconstituted solution was centrifuged at 4°C and 10,000×g for 10 min, and the supernatant was used for radio-metabolite profiling.
The radioactivity in the organic solvent extract and the reconstitution solution was determined by LSC. The solid residue after extraction was dissolved by heating with 1N KOH solution and added to the scintillation solution to determine its radioactivity. All the final data were used to examine the recovery of radioactivity during plasma extraction.
The urine samples from the six subjects were mixed in the same volume percentage to obtain six 0–72 h urine samples. A portion of the proportionally mixed urine sample was centrifuged for 10 min at approximately 10,000×g and 4°C. Two samples were taken before and after centrifugation, and the radioactivity of the samples was determined by LSC, and the data obtained were used to calculate the recovery of radioactivity during the centrifugation process. A portion of the supernatant after centrifugation was used directly for radio-metabolite profiling.
The fecal samples from the six subjects were mixed with the same weight percentage to obtain 6 fecal homogenate samples of 0–168 h. A portion of the proportionally mixed fecal homogenate samples was taken and extracted by adding a volume of acetonitrile (3×, v/v), vortexed for 5 min at room temperature, sonicated for 5 min and then centrifuged for 10 min at 10,000 × g and 4°C. The residue of the extracted material was firstly sonicated and mixed using about 1 mL of ultrapure water before extracted using methanol (2×, v/v). The process was repeated twice and the organic extracts were combined, blown dry using nitrogen and then reconstituted with dimethyl sulfoxide: acetonitrile: ultrapure water (3:2:5), the reconstituted solution was centrifuged at 10,000×g at 4°C for 10 min and the supernatant was used for radio-metabolite profiling. […] LSC was used to determine the intensity of radioactivity contained in the organic solvent extract and in the reconstituted solution. The solid residue after extraction is fully combusted by an oxidative combustor, and the [^14C]carbon dioxide produced by combustion of the sample is captured with a scintillation solution to determine its radioactivity intensity. All final data were used to examine the extraction and recovery of radioactivity from fecal homogenate samples.
A high performance liquid chromatograph coupled with an online isotope detector and mass spectrometry (LC/RAM/MS) was used for the identification of radioactive metabolite profiles. The HPLC method consisted of an HPLC system (Shimadzu UFLC-20A-Lite), a chromatographic column (ACE Excel 3 C18, 150 × 4.6 mm id), mobile phase A (0.4% aqueous formic acid, pH = 3.2 adjusted with ammonia) and mobile phase B (acetonitrile) at a flow rate of 0.7 mL/min. The gradient was 0% B for the 0–5 min, 20% B from 15 min to 30 min, 22% B from 32 to 40 min, and 70%–100% B from 60 to 72 min. The column temperature was 28°C. […]

[2] = system: cDNA-expressed recombinant human cytochrome P450s and silensomes as well as human liver microsomes with selective chemical CYP inhibitors; parameters: method as in unpublished data; settings: conducted in Hutch-Med DMPK department ref unpublished data; cited from earlier work

| SMILES | F: %Dose in feces (Figure 4) [1] | P: %AUC in plasma (Figure 4) [1] | U: %Dose in urine (Figure 4) [1] | Plasma %AUC (percentage of total plasma radioactivity) [1] | Urine %Dose [1] | Feces %Dose [1] | %Dose in pooled feces ([1]; subject 01001) [%Dose] | %Dose in pooled feces ([1]; subject 01002) [%Dose] | %Dose in pooled feces ([1]; subject 01003) [%Dose] | %AUC in AUC-pooled plasma ([1]; subject 01004) [%AUC] | %Dose in pooled feces ([1]; subject 01004) [%Dose] | %AUC in AUC-pooled plasma ([1]; subject 01005) [%AUC] | %Dose in pooled feces ([1]; subject 01005) [%Dose] | %AUC in AUC-pooled plasma ([1]; subject 01006) [%AUC] | %Dose in pooled feces ([1]; subject 01006) [%Dose] | enzyme involved in the formation of the metabolite from amdizalisib [2] | further results |
| --- | --- | --- | --- | --- | --- | --- | --- | --- | --- | --- | --- | --- | --- | --- | --- | --- | --- |
| CC(=O)c1cc2ncc(Cl)n2nc1-c1ccccc1 [M271] | + | + | + | detected by mass spectrometry, but could not be quantified and + | detected by mass spectrometry, but could not be quantified and + | detected by mass spectrometry, but could not be quantified and + | – | – | – | – | – | – | – | – | – | – | – |
| C[C@H](Nc1ncnc(N)c1C#N)c1cc2ncc(Cl)n2nc1-c1ccc(O)cc1 [M406-1] | 5.06% | 0.12% | – | 0.12 %AUC | – | 5.06 %Dose | 4.78 | 5.18 | 5.65 | 0.16 | 6.15 | 0.26 | 4.03 | 0.27 | 4.54 | formed primarily by CYP2C9 | – |
| C[C@H](Nc1nc(O)nc(N)c1C#N)c1cc2ncc(Cl)n2nc1-c1ccccc1 [M406-2] | 11.30% | 20.91% | 8.08% | 20.91 %AUC | 8.08 %Dose | 11.30 %Dose | 9.93 | 13.05 | 10.17 | 16.67 | 5.32 | 20.09 | 14.97 | 36.04 | 14.33 | aldehyde oxidase | contribution to amdizalisib metabolism ([1]; estimated from the metabolite amounts in excreta): around 20%; %AUC in AUC-pooled plasma ([1]; subject 01001): 16.31 %AUC; %Dose in pooled urine ([1]; subject 01001): 8.77 %Dose; %AUC in AUC-pooled plasma ([1]; subject 01002): 16.12 %AUC; %Dose in pooled urine ([1]; subject 01002): 9.03 %Dose; %AUC in AUC-pooled plasma ([1]; subject 01003): 20.20 %AUC; %Dose in pooled urine ([1]; subject 01003): 8.92 %Dose; %Dose in pooled urine ([1]; subject 01004): 7.29 %Dose; %Dose in pooled urine ([1]; subject 01005): 6.50 %Dose; %Dose in pooled urine ([1]; subject 01006): 7.98 %Dose |
| C[C@H](Nc1ncnc(N)c1C(N)=O)c1cc2ncc(Cl)n2nc1-c1ccccc1 [M408] | 1.04% | + | + | detected by mass spectrometry, but could not be quantified and + | detected by mass spectrometry, but could not be quantified and + | 1.04 %Dose | 0.40 | 0.91 | 2.11 | – | 0.69 | – | 1.53 | – | 0.60 | – | – |
